Data as given in patent publication US4042683A, “Rifamycins P, Q and U” (Gruppo Lepetit S.p.A., priority 1974, dated 1977).
In brackets after ≈: the same amount, converted by molar mass. Where two headings read alike, the source gives them in different places.

Key:
Staphylococcus aureus = test: experiments on mice injected with Staphylococcus aureus; assay type: in vivo
From the text: The novel compounds are active also in the laboratory animals injected with Staphylococcus aureus, Escherichia coli. The following table reports the results of representative experiments on mice in comparison with a known natural rifamycin, i.e. rifamycin SV.

[1] = tested on: Staphylococcus aureus Tour rifampicin-resistant; test: in vitro activity spectrum, minimal inhibition concentration, Staphylococcus aureus Tour rifampicin-resistant
[2] = tested on: Pseudomonas aeruginosa ATCC 10145; test: in vitro activity spectrum, minimal inhibition concentration, Pseudomonas aeruginosa ATCC 10145; assay type: cell-based
From the text: (§1) | Minimal inhibiton concentration (μg/ml)

[3] = tested on: Diplococcus pneumoniae UC 41; test: in vitro activity spectrum, minimal inhibition concentration, Diplococcus pneumoniae UC 41; assay type: cell-based
From the text: as §1

[4] = tested on: Proteus vulgaris X 19 H ATCC 881; test: in vitro activity spectrum, minimal inhibition concentration, Proteus vulgaris X 19 H ATCC 881; assay type: cell-based
From the text: as §1

[5] = tested on: Klebsiella pneumoniae ATCC 10031; test: in vitro activity spectrum, minimal inhibition concentration, Klebsiella pneumoniae ATCC 10031; assay type: cell-based
From the text: as §1

[6] = tested on: Mycobacterium tub. H37Rv ATCC 9360; test: in vitro activity spectrum, minimal inhibition concentration, Mycobacterium tub. H37Rv ATCC 9360; assay type: cell-based
From the text: as §1

[7] = tested on: Streptococcus faecalis ATCC 10541; test: in vitro activity spectrum, minimal inhibition concentration, Streptococcus faecalis ATCC 10541; assay type: cell-based
From the text: as §1

[8] = tested on: Escherichia coli ATCC 10536; test: in vitro activity spectrum, minimal inhibition concentration, Escherichia coli ATCC 10536; assay type: cell-based
From the text: as §1

[9] = tested on: Staphylococcus aureus ATCC 6538; test: in vitro activity spectrum, minimal inhibition concentration, Staphylococcus aureus ATCC 6538; assay type: cell-based; conditions: for MIC: Staphylococcus aureus, read-out: Minimal inhibiton concentration
From the text: as §1

[10] = tested on: Streptococcus hemolyticus C 203; test: in vitro activity spectrum, minimal inhibition concentration, Streptococcus hemolyticus C 203; assay type: cell-based
From the text: as §1

[11] = tested on: Staphylococcus aureus Tour; test: in vitro activity spectrum, minimal inhibition concentration, Staphylococcus aureus Tour; assay type: cell-based
From the text: as §1

Bacillus Subtilis = test: agar disc inhibition of growth of Bacillus subtilis; assay type: cell-based; conditions: Penassay agar pH 7.2, disc of agar carrying a single colony
Procedure: A suspension of spores of Streptomyces mediterranei ATCC 13685 was treated with N-methyl-N'-nitro-N-nitrosoguanidine at 1 mg/ml in a pH 9.0 tris(hydroxymethyl)aminomethane buffer for 60 minutes at 28° C. The mutagen-treated spores were then washed and plated onto Petri dishes containing Bennett agar. After 14 days incubation at 28° C., the surviving colonies were picked off and examined for their ability to inhibit the growth of Bacillus Subtilis in the following manner: a disc of agar (diameter 4-8 mm) carrying a single colony was transferred onto a Petri disch containing […] agar at pH 7.2 previously seeded at 2% (v/v) with Bacillus Subtilis. […] Three strains were isolated in this way and were originally given our internal code D-2, MM18-6 and M-36. Samples of these microorganisms were deposited with the ATCC where they are identified respectively as Nocardia mediterranea ATCC 31064 Nocardia mediterranea ATCC 31065 and Nocardia mediterranea ATCC 31066.

## CO[C@H]1/C=C/O[C@@]2(C)Oc3c(C)c(O)c4c(O)c(cc(O)c4c3C2=O)NC(=O)/C(C)=C\C=C\[C@H](C)[C@H](O)[C@@H](C)[C@@H](O)[C@@H](C)[C@H](OC(C)=O)[C@@H]1C [rifamycin SV]
Staphylococcus aureus; po, o.s., read-out: ED50
  ED50: 74 mg/kg
Staphylococcus aureus; sc, read-out: ED50
  ED50: 17 mg/kg

## COC1/C=C\OC2(C)Oc3c(C)c(O)c4c(O)c(c5sc(CO)nc5c4c3C2=O)NC(=O)/C(C)=C/C=C/C(C)C(O)C(C)C(O)C(C)C(OC(C)=O)C1C (stereo not drawn) [Rifamycin Q]
[1]; Staphylococcus aureus Tour rifampicin-resistant
  Minimal inhibiton concentration: > 100 µg/mL
[2]
  Minimal inhibiton concentration: 50 µg/mL (≈ 65 µM)
[3]
  Minimal inhibiton concentration: 0.039 µg/mL (≈ 0.0507 µM)
[4]
  Minimal inhibiton concentration: 12.5 µg/mL (≈ 16.3 µM)
[5]
  Minimal inhibiton concentration: 50 µg/mL (≈ 65 µM)
[6]
  Minimal inhibiton concentration: 2.5 µg/mL (≈ 3.25 µM)
[7]
  Minimal inhibiton concentration: 0.312 µg/mL (≈ 0.406 µM)
[8]
  Minimal inhibiton concentration: 12.5 µg/mL (≈ 16.3 µM)
[9]; Staphylococcus aureus ATCC 6538
  Minimal inhibiton concentration: 0.039 µg/mL (≈ 0.0507 µM)
[9]; Staphylococcus aureus ATCC 6538 (20% bovine serum)
  Minimal inhibiton concentration: 0.078 µg/mL (≈ 0.101 µM)
[10]
  Minimal inhibiton concentration: 0.019 µg/mL (≈ 0.0247 µM)
Staphylococcus aureus; s.c.
  ED50: 8 mg/kg
[11]
  Minimal inhibiton concentration: 0.06 µg/mL (≈ 0.078 µM)

## COC1C=COC2(C)Oc3c(C)c(O)c4c(O)c(cc(OCC(=O)O)c4c3C2=O)NC(=O)C(C)=CC=CC(C)C(O)C(C)C(O)C(C)C(OC(C)=O)C1C (stereo not drawn) [rifamycin B]
Bacillus Subtilis
  inhibition of the growth of Bacillus subtilis: practically inactive

## COC1C=COC2(C)Oc3c(C)c(O)c4c(c3C2=O)C(=O)C=C(NC(=O)C(CO)=CC=CC(C)C(O)C(C)C(O)C(C)C(OC(C)=O)C1C)C4=O (stereo not drawn) [Rifamycin R]
[1]; Staphylococcus aureus, read-out: Minimal inhibiton concentration
  MIC: 100 µg/mL (≈ 140 µM)
[2]; ATCC10145, read-out: Minimal inhibiton concentration
  MIC: 100 µg/mL (≈ 140 µM)
[3]; Streptococcus pneumoniae, UC41, read-out: Minimal inhibiton concentration
  MIC: 0.00625 µg/mL (≈ 0.00878 µM)
[4]; ATCC881, read-out: Minimal inhibiton concentration
  MIC: 12.5 µg/mL (≈ 17.6 µM)
[6]; Mycobacterium tuberculosis, read-out: Minimal inhibiton concentration
  MIC: 0.1 µg/mL (≈ 0.14 µM)
[7]; Enterococcus faecalis, ATCC10541, read-out: Minimal inhibiton concentration
  MIC: 0.19 µg/mL (≈ 0.267 µM)
[8]; ATCC10536, read-out: Minimal inhibiton concentration
  MIC: 50 µg/mL (≈ 70.2 µM)
[9]; ATCC6538, Staphylococcus aureus ATCC 6538 (20% bovine serum)
  MIC: 0.0047 µg/mL (≈ 0.0066 µM)
[9]; ATCC6538, Staphylococcus aureus ATCC 6538
  MIC: 0.019 µg/mL (≈ 0.0267 µM)
[10]; Streptococcus pyogenes, C203, read-out: Minimal inhibiton concentration
  MIC: 0.00312 µg/mL (≈ 0.00438 µM)
[11]; read-out: Minimal inhibiton concentration
  MIC: 0.00235 µg/mL (≈ 0.0033 µM)
